According to patent US11161842B2, “Bifunctional molecules for degradation of EGFR and methods of use” (Dana-Farber Cancer Institute, Inc., priority 2016, dated 2021):

What was measured:
[1] = target: T1, T790M/L858R/C797S transformed Ba/F3 cells (Homo sapiens, UniProt P00533, T790M/C797S/L858R, cells depend on it); test: Ba/F3 cell proliferation (MTS) assay, T790M/L858R/C797S; assay type: cell-based, murine; settings: antiproliferative activity
T1 construct: The constructs were shuttled into the retroviral vector JP 1540 using the BD Creator™ System (BD Biosciences)

[2] = target: T2, T790M/L858R transformed Ba/F3 cells (Homo sapiens, UniProt P00533, T790M/L858R, cells depend on it); test: Ba/F3 cell proliferation (MTS) assay, T790M/L858R; assay type: cell-based, murine; settings: for EC50: antiproliferative activity; for % control: compound at 1 μM, inhibition of growth as percent of control
T2 construct: The constructs were shuttled into the retroviral vector JP 1540 using the BD Creator™ System (BD Biosciences)
From the text: The EGFR mutant L858R, Del E746_A750, L858R/T790M, DelE746_A750/T790M, L858R/T790M/C797S and Del/T790M/C797S Ba/F3 cells have been previously described (Zhou, W., Ercan, D., Chen, L., Yun, C. H., Li, D., Capelletti, M., Cortot, A. B., Chirieac, L., Iacob, R. E., Padera, R., et al. “Novel mutant-selective EGFR kinase inhibitors against EGFR T790M,” Nature 462, (2009), 1070-1074). All cell lines were maintained in RPMI 1640 (Cellgro; Mediatech Inc., Herndon, Calif.) supplemented with 10% FBS 100 units/mL penicillin, 100 units/mL streptomycin, and 2 mM glutamine. L858R cells were maintained in ACL-4 media (Invitrogen, Carlsbad, Calif.) supplemented with 5% FBS, 100 units/mL penicillin, 100 units/mL streptomycin, and 2 mM glutamine. The EGFR I941R mutation was introduced via site directed mutagenesis using the Quick Change Site-Directed Mutagenesis kit (Stratagene; La Jolla, Calif.) according to the manufacturer's instructions. All constructs were confirmed by DNA sequencing. The constructs were shuttled into the retroviral vector JP 1540 using the BD Creator™ System (BD Biosciences). Ba/F3 cells were infected with retrovirus and according to standard protocols, as described previously (Zhou et al, Nature 2009). Stable clones were obtained by selection in puromycin (2 μg/ml).
Growth and inhibition of growth was assessed by MTS assay and was performed according to previously established methods (Zhou et al., Nature 2009). The MTS assay is a colorimetric method for determining the number of viable cells that is based on the bioreduction of MTS by cells to a formazan product that is soluble in cell culture medium and can be detected spectrophotometrically. Ba/F3 cells of different EGFR genotypes were exposed to treatment for 72 hours and the number of cells used per experiment determined empirically and has been previously established (Zhou et al., Nature 2009). All experimental points were set up in six wells and all experiments were repeated at least three times. […] The curves were fitted using a non-linear regression model with a sigmoidal dose response.
Compounds of Table 1 were tested at a concentration of 1 μM against T790M/L858R transformed Ba/F3 cells. The assay, as described in Example 42, measured inhibition of growth as a percent of the inhibitory activity of the control. In Table 1, A is 0<% control <25, B is 25<% control <50, C is 50<% control <75, and D is 75<% control.
Compounds of Table 2 were tested in a T790M/L858R transformed Ba/F3 cell line as described in Example 42 and the EC50 values were calculated. In Table 2, A is EC50<500 nM, B is 500 nM<EC50<1000 nM, C is 1000 nM<EC50<5000 nM, and D is 5000 nM<EC50.

T2 sequence (P00533 whole entry T790M/L858R): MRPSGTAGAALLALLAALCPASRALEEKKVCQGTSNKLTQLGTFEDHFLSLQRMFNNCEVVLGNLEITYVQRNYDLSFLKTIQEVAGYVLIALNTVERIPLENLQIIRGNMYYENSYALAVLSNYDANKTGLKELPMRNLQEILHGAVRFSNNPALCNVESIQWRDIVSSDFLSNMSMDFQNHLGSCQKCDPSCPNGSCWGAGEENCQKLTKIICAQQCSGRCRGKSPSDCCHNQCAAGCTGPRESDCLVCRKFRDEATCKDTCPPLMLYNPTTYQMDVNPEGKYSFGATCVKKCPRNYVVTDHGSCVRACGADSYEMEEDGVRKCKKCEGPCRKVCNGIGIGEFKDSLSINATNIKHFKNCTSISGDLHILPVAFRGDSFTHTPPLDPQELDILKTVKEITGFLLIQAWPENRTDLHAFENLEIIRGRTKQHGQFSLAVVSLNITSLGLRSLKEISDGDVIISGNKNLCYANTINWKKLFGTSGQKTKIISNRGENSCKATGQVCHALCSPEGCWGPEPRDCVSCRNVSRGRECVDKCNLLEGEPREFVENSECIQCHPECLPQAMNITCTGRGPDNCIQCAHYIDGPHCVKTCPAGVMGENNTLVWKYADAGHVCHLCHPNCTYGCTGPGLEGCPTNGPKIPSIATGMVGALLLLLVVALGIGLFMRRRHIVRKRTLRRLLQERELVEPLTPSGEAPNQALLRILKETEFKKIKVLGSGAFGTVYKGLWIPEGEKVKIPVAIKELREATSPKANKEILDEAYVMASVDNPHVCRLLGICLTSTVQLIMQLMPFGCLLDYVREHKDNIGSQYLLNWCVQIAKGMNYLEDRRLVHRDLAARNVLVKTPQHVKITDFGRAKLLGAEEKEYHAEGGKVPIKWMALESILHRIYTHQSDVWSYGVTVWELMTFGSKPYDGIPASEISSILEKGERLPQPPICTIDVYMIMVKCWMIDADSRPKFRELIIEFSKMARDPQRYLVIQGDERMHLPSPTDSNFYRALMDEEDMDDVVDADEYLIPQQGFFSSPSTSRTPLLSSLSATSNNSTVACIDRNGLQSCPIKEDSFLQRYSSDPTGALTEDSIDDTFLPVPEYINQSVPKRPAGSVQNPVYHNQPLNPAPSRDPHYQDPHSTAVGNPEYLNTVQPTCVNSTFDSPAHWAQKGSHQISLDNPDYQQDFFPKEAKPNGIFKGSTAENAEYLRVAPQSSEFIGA
T1 sequence (P00533 whole entry T790M/C797S/L858R): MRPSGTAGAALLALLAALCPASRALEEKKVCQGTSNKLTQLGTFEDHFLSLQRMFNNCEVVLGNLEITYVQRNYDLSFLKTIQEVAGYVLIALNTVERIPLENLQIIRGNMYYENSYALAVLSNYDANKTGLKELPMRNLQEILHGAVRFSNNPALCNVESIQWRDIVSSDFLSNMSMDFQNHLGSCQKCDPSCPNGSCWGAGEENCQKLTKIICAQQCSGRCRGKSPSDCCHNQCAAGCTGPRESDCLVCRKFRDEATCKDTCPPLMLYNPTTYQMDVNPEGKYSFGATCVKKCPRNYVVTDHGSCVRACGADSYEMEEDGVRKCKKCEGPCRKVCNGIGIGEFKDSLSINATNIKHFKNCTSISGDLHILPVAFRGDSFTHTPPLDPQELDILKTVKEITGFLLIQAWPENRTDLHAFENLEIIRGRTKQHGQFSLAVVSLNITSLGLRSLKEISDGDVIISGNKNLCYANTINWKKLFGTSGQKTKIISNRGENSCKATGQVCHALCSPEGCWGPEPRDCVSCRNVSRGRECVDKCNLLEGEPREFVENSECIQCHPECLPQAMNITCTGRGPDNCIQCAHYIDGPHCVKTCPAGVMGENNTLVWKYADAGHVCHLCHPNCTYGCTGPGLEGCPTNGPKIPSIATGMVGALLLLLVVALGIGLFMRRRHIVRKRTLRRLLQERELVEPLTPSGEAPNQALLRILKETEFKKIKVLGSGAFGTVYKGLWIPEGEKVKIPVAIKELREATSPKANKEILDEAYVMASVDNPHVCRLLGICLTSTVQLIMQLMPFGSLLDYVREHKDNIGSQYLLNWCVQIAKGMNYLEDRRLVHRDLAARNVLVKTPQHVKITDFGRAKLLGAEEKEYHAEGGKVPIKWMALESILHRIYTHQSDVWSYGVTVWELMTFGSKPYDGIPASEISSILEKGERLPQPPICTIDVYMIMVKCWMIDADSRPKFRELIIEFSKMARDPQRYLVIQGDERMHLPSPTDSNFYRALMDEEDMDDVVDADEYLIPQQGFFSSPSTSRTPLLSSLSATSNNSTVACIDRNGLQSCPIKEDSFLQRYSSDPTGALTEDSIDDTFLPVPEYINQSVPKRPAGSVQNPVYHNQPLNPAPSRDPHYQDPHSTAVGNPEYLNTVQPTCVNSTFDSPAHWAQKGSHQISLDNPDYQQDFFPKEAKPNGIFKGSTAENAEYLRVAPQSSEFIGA

Row | Structure (SMILES) | EC50 [1] | EC50 [2] | % control [2]
1 | O=C1CCC(N2C(=O)c3cccc(NCCOCCOCCOCCN4CCN(c5ccc(-c6ccc7c(c6)C(=O)N(C(C(=O)Nc6nccs6)c6ccccc6O)C7)cn5)CC4)c3C2=O)C(=O)N1 (centres unmarked) [Compound I-14, 2-(6-(6-(4-(2-(2-(2-(2-((2-(2,6-Dioxopiperidin-3-yl)-1,3-dioxoisoindolin-4-yl)amino)ethoxy)ethoxy)ethoxy)ethyl)piperazin-1-yl)pyridin-3-yl)-1-oxoisoindolin-2-yl)-2-(2-hydroxyphenyl)-N-(thiazol-2-yl)acetamide] | > 5000 nM | 1000 to 5000 nM | D (D is 75<% control)
2 | O=C1CCC(N2C(=O)c3cccc(NC4CN(CCOCCOCCN5CCN(c6ccc(-c7ccc8c(c7)C(=O)N(C(C(=O)Nc7nccs7)c7ccccc7)C8)cc6)CC5)C4)c3C2=O)C(=O)N1 (centres unmarked) [Compound I-15, 2-(6-(4-(4-(2-(2-(2-(3-((2-(2,6-Dioxopiperidin-3-yl)-1,3-dioxoisoindolin-4-yl)amino)azetidin-1-yl)ethoxy)ethoxy)ethyl)piperazin-1-yl)phenyl)-1-oxoisoindolin-2-yl)-2-phenyl-N-(thiazol-2-yl)acetamide] | > 5000 nM | 1000 to 5000 nM | C (C is 50<% control <75)
3 | O=C1CCC(N2C(=O)c3cccc(NC4CN(CCOCCOCCOCCN5CCN(c6ccc(-c7ccc8c(c7)C(=O)N(C(C(=O)Nc7nccs7)c7ccccc7)C8)cc6)CC5)C4)c3C2=O)C(=O)N1 (centres unmarked) [Compound I-16, 2-(6-(4-(4-(2-(2-(2-(2-(3-((2-(2,6-Dioxopiperidin-3-yl)-1,3-dioxoisoindolin-4-yl)amino)azetidin-1-yl)ethoxy)ethoxy)ethoxy)ethyl)piperazin-1-yl)phenyl)-1-oxoisoindolin-2-yl)-2-phenyl-N-(thiazol-2-yl)acetamide] | > 5000 nM | 1000 to 5000 nM | C (C is 50<% control <75)
4 | O=C1CCC(N2C(=O)c3cccc(NCCOCCOCCOCCN4CCN(c5ccc(-c6ccc7c(c6)C(=O)N(C(C(=O)Nc6nccs6)c6ccccc6)C7)cc5)CC4)c3C2=O)C(=O)N1 (centres unmarked) [Compound I-18, 2-(6-(4-(4-(2-(2-(2-(2-((2-(2,6-Dioxopiperidin-3-yl)-1,3-dioxoisoindolin-4-yl)amino)ethoxy)ethoxy)ethoxy)ethyl)piperazin-1-yl)phenyl)-1-oxoisoindolin-2-yl)-2-phenyl-N-(thiazol-2-yl)acetamide] | < 500 nM | < 500 nM | A (A is 0<% control <25)
5 | O=C1CCC(N2C(=O)c3cccc(NCCOCCOCCOCCOCCN4CCN(c5ccc(-c6ccc7c(c6)C(=O)N(C(C(=O)Nc6nccs6)c6ccccc6)C7)cc5)CC4)c3C2=O)C(=O)N1 (centres unmarked) [Compound I-20, 2-(6-(4-(4-(14-((2-(2,6-Dioxopiperidin-3-yl)-1,3-dioxoisoindolin-4-yl)amino)-3,6,9,12-tetraoxatetradecyl)piperazin-1-yl)phenyl)-1-oxoisoindolin-2-yl)-2-phenyl-N-(thiazol-2-yl)acetamide] | < 500 nM | < 500 nM | A (A is 0<% control <25)
6 | O=C1CCC(N2C(=O)c3cccc(NCCOCCOCCOCCN4CCN(c5ccc(-c6ccc7c(c6)C(=O)N(C(C(=O)Nc6nccs6)c6ccccc6)C7)cn5)CC4)c3C2=O)C(=O)N1 (centres unmarked) [Compound I-22, 2-(6-(6-(4-(2-(2-(2-(2-((2-(2,6-Dioxopiperidin-3-yl)-1,3-dioxoisoindolin-4-yl)amino)ethoxy)ethoxy)ethoxy)ethyl)piperazin-1-yl)pyridin-3-yl)-1-oxoisoindolin-2-yl)-2-phenyl-N-(thiazol-2-yl)acetamide] | 500 to 1000 nM | < 500 nM | A (A is 0<% control <25)
7 | Cc1ncsc1-c1ccc([C@H](C)NC(=O)[C@@H]2C[C@@H](O)CN2C(=O)[C@@H](NC(=O)CCOCCOCCOCCN2CCN(c3ccc(-c4ccc5c(c4)C(=O)N(C(C(=O)Nc4nccs4)c4ccccc4)C5)cn3)CC2)C(C)(C)C)cc1 (stereo partly drawn) [Compound I-23, (2S,4R)-1-((14S)-14-(tert-Butyl)-12-oxo-1-(4-(5-(3-oxo-2-(2-oxo-1-phenyl-2-(thiazol-2-ylamino)ethyl)isoindolin-5-yl)pyridin-2-yl)piperazin-1-yl)-3,6,9-trioxa-13-azapentadecan-15-oyl)-4-hydroxy-N—((S)-1-(4-(4-methylthiazol-5-yl)phenyl)ethyl)pyrrolidine-2-carboxamide] | > 5000 nM | > 5000 nM | D (D is 75<% control)
8 | Cc1ncsc1-c1ccc([C@H](C)NC(=O)[C@@H]2C[C@@H](O)CN2C(=O)[C@@H](NC(=O)CCOCCOCCN2CCN(c3ccc(-c4ccc5c(c4)C(=O)N(C(C(=O)Nc4nccs4)c4ccccc4)C5)cn3)CC2)C(C)(C)C)cc1 (stereo partly drawn) [Compound I-24, (2S,4R)-1-((2S)-3,3-Dimethyl-2-(3-(2-(2-(4-(5-(3-oxo-2-(2-oxo-1-phenyl-2-(thiazol-2-ylamino)ethyl)isoindolin-5-yl)pyridin-2-yl)piperazin-1-yl)ethoxy)ethoxy)propanamido)butanoyl)-4-hydroxy-N—((S)-1-(4-(4-methylthiazol-5-yl)phenyl)ethyl)pyrrolidine-2-carboxamide] | > 5000 nM | > 5000 nM | 
9 | O=C1CCC(N2C(=O)c3cccc(NCCOCCOCCC(=O)N4CCN(c5ccc(-c6ccc7c(c6)C(=O)N(C(C(=O)Nc6nccs6)c6cc(F)ccc6O)C7)cc5)CC4)c3C2=O)C(=O)N1 (centres unmarked) [Compound I-28, 2-(6-(4-(4-(3-(2-(2-((2-(2,6-dioxopiperidin-3-yl)-1,3-dioxoisoindolin-4-yl)amino)ethoxy)ethoxy)propanoyl)piperazin-1-yl)phenyl)-1-oxoisoindolin-2-yl)-2-(5-fluoro-2-hydroxyphenyl)-N-(thiazol-2-yl)acetamide] | > 5000 nM | 500 to 1000 nM | A (A is 0<% control <25)
10 | O=C1CCC(N2C(=O)c3cccc(NCCOCCC(=O)N4CCN(c5ccc(-c6ccc7c(c6)C(=O)N(C(C(=O)Nc6nccs6)c6cc(F)ccc6O)C7)cc5)CC4)c3C2=O)C(=O)N1 (centres unmarked) [Compound I-29, 2-(6-(4-(4-(3-(2-((2-(2,6-dioxopiperidin-3-yl)-1,3-dioxoisoindolin-4-yl)amino)ethoxy)propanoyl)piperazin-1-yl)phenyl)-1-oxoisoindolin-2-yl)-2-(5-fluoro-2-hydroxyphenyl)-N-(thiazol-2-yl)acetamide] | > 5000 nM | 500 to 1000 nM | A (A is 0<% control <25)
11 | O=C1CCC(N2C(=O)c3cccc(NCCOCCOCCN4CCN(c5ccc(-c6ccc7c(c6)C(=O)N(C(C(=O)Nc6nccs6)c6cc(F)ccc6O)C7)cc5)CC4)c3C2=O)C(=O)N1 (centres unmarked) [Compound I-33] | 1000 to 5000 nM | < 500 nM | A (A is 0<% control <25)
